# Experimental data as given in publication PMC6345968, “Structural basis for species-selective targeting of Hsp90 in a pathogenic fungus” (Nature Communications, 2019).
# pEC50, pKd: −log10 of the molar value. Values joined by “and” are separate entries in the source; they are usually repeats but may differ in a detail not shown here. Equal entries are not always repeated. Where two headings read alike, the source gives them in different places.
# Assays:
# S. cerevisiae Hsp90 [1] = target: S. cerevisiae Hsp90; design: method as in Owen, B. A. L. et al. J. Biol. Chem. 277, 7086–7091 (2002); details: ref Owen, B. A. L. et al. J. Biol. Chem. 277, 7086–7091 (2002); read-out: Kd for ATP; cited from earlier work
# human Hsp90 [2] = target: human Hsp90; design: method as in Owen, B. A. L. et al. J. Biol. Chem. 277, 7086–7091 (2002); details: ref Owen, B. A. L. et al. J. Biol. Chem. 277, 7086–7091 (2002); read-out: Kd for ATP; cited from earlier work
# S. cerevisiae Hsp90 [3] = test system: S. cerevisiae Hsp90; design: method as in Owen, B. A. L. et al. J. Biol. Chem. 277, 7086–7091 (2002); details: ref Owen, B. A. L. et al. J. Biol. Chem. 277, 7086–7091 (2002); read-out: Km (ATP); cited from earlier work
# human Hsp90 [4] = details: read-out: Km (ATP); ref Owen, B. A. L. et al. J. Biol. Chem. 277, 7086–7091 (2002); cited from earlier work
# C. albicans Hsp90 [5] = target: T1, C. albicans Hsp90 (Candida albicans, UniProt P46598); assay: ATP binding by intrinsic tryptophan fluorescence quenching; details: read-out: Kd for ATP; purified full-length Hsp90
# Excerpt: tryptophan fluorescence quenching by ligands.
# Intrinsic tryptophan fluorescence was
# Difference in intrinsic fluorescence of
# assuming single-site specific binding.
# C. albicans Hsp90 [6] = target: T1, C. albicans Hsp90; assay: ATPase activity, Michaelis-Menten / Lineweaver-Burk; type: biochemical; design: the core ATPase activity of purified full-length homodimers from each species; 6x-His (pRSET-A) (N); made in house; host or cells: E. coli RIL; details: γ-32P-labeled ATP
# Excerpt: 1151 Biochemical characterization of C. albicans Hsp90. a, Binding of C. albicans Hsp90 to its
# 1152 natural ligand ATP. b, Michaelis-Menten plot correlating the rate of ATP hydrolysis by C.
# 1153 albicans Hsp90 with concentration of substrate. Fractional cleavage of γ-32P-labeled ATP is
# 1154 plotted against ATP concentration. c, Lineweaver-Burk plot performed to define Km and kcat for
# 1155 the ATPase activity of C. albicans Hsp90. d, Comparison of parameters determined for C.
# 1156 albicans Hsp90 with previously published data for homologous human and yeast (S. cerevisiae)
# [7] = test system: C. albicans reporter strain CaLC922; type: cell-based, Candida albicans; details: 6-h exposure
# Experimental: In addition to effects on host immune function, we also examined activation of the evolutionarily conserved heat-shock response by CMLD013075.
# Activation of the response in C. albicans was also measured in 96-well format using a reporter strain (CaLC922) engineered with HSP70 promoter elements driving expression of the LacZ gene from Streptococcus thermophilus integrated at the HSP70 locus with the URA3 marker for selection. […]
# [8] = target: T2, Hsp90 in C. albicans (SC5314) lysate (Candida albicans, UniProt P46598); assay: biochemical; type: binding; details: for FP signal: raw
# T2 construct: endogenous in cells; host or cells: C. albicans SC5314 whole-cell lysate
# [9] = test system: S. cerevisiae expressing C. albicans Hsp90; assay: Broth microdilution growth inhibition (MIC), yeast with C. albicans Hsp90 as sole Hsp90; type: cell-based, Saccharomyces cerevisiae
# Excerpt: A critical consideration in the development of an effective antifungal is not just target binding, but also access to the target across microbial cell membranes and cell walls. Therefore, we evaluated the potency and selectivity of oxime analogs using drug susceptibility assays. We used strains of S. cerevisiae where both endogenous genes encoding isoforms of Hsp90 have been disrupted and growth is solely dependent upon C. albicans or human Hsp90 isoforms.
# Antifungal tolerance and resistance were determined in flat bottom, 96-well microtiter plates using a modified broth microdilution protocol as described[8],[10]. All Hsp90 inhibitors were formulated in dimethyl sulfoxide (DMSO, Sigma Aldrich Co.); fluconazole was dissolved in sterile ddH2O. Each strain was tested in duplicate on at least two occasions. […] To test for fungicidal activity, cultures from MIC plates were spotted on YPD agar plates using a spotter (Frogger, V&P Scientific, Inc). Plates were photographed after 48 h of incubations at 30 °C.
# Hsp90 in HEPG2 lysate = details: for FP signal: raw
# [10] = SC5314 lysate, 1.372 nM compound
# [11] = SC5314 lysate, 4.115 nM compound
# [12] = SC5314 lysate, 12.346 nM compound
# [13] = SC5314 lysate, 37.037 nM compound
# [14] = SC5314 lysate, 111.111 nM compound
# [15] = SC5314 lysate, 333.333 nM compound
# [16] = SC5314 lysate, 1000 nM compound
# [17] = SC5314 lysate, 3000 nM compound
# T2 sequence (P46598 whole entry): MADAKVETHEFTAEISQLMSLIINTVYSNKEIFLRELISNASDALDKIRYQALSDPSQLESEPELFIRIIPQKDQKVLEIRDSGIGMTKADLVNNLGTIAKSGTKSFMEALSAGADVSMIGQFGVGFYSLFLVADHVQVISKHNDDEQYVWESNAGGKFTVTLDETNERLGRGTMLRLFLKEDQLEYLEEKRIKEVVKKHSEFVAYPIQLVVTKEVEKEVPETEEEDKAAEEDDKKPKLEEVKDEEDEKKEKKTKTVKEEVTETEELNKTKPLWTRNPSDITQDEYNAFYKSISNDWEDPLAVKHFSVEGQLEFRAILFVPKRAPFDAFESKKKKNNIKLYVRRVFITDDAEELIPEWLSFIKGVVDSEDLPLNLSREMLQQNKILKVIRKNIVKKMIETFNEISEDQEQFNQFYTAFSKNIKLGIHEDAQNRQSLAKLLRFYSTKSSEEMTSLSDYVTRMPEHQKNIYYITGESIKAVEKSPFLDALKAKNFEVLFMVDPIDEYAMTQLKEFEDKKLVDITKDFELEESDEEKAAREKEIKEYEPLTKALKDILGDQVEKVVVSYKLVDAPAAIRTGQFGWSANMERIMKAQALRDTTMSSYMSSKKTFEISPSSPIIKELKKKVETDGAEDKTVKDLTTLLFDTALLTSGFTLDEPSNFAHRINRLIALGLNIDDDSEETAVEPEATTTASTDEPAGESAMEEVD
# T1 sequence (P46598 whole entry): as above
smiles,measurement,setting,value
Nc1ncnc2c1ncn2[C@@H]1O[C@H](COP(=O)(O)OP(=O)(O)OP(=O)(O)O)[C@@H](O)[C@H]1O [ATP],pKd,S. cerevisiae Hsp90 [1],3.88
same,pKd,human Hsp90 [2],3.62
same,Km,S. cerevisiae Hsp90 [3],511 µM
same,Km,human Hsp90 [4],324 µM
same,pKd,C. albicans Hsp90 [5],3.90
same,Km,C. albicans Hsp90 [6],533 µM
"CC(C)c1cc(-c2n[nH]c(=O)n2-c2ccc3c(ccn3C)c2)c(O)cc1O [ganetespib, reference compound]",heat-shock reporter activation,[7],neither ganetespib nor radicicol induced the reporter to a measurable extent
same,heat-shock reporter activation,293T reporter cells,concentration-dependent reporter activation
C[C@@H]1C[C@@H]2O[C@@H]2/C=C\C=C\C(=NOCc2ccccc2Cl)Cc2c(Cl)c(O)cc(O)c2C(=O)O1 [compound 4],normalized fungal selectivity in lysates,"[8]; C. albicans SC5314 vs HEPG2 lysate, FP",2.9 fold
same,pEC50,"[8]; EC50, SC5314 lysate, not normalized, oxime panel experiment 220817",6.27 and 6.28
same,Ratio re. GdA,"[8]; EC50 relative to GdA, SC5314 lysate",31.1993
same,FP signal relative to 0 nM,"[8]; SC5314 lysate, 0.457 nM compound",0.9904
same,FP signal (raw),"[8]; SC5314 lysate, 1.372 nM",208
same,FP signal relative to 0 nM,[8]; [10],1
same,FP signal,[8]; [10],208
same,FP signal (raw),"[8]; SC5314 lysate, 4.115 nM",207
same,FP signal relative to 0 nM,[8]; [11],0.9952
same,FP signal,[8]; [11],207
same,FP signal (raw),"[8]; SC5314 lysate, 12.346 nM",202
same,FP signal relative to 0 nM,[8]; [12],0.9712
same,FP signal,[8]; [12],202
same,FP signal (raw),"[8]; SC5314 lysate, 37.037 nM",199
same,FP signal relative to 0 nM,[8]; [13],0.9567
same,FP signal,[8]; [13],199
same,FP signal (raw),"[8]; SC5314 lysate, 111.111 nM",186
same,FP signal relative to 0 nM,[8]; [14],0.8942
same,FP signal,[8]; [14],186
same,FP signal (raw),"[8]; SC5314 lysate, 333.333 nM",145
same,FP signal relative to 0 nM,[8]; [15],0.6971
same,FP signal,[8]; [15],145
same,FP signal (raw),"[8]; SC5314 lysate, 1000 nM",75
same,FP signal relative to 0 nM,[8]; [16],0.3606
same,FP signal,[8]; [16],75
same,FP signal (raw),"[8]; SC5314 lysate, 3000 nM",39
same,FP signal relative to 0 nM,[8]; [17],0.1875
same,FP signal,[8]; [17],39
same,HepG2/SC5314,"[8]; ratio of GdA-normalized EC50s, human over fungal lysate",2.89
same,HepG2/SC5314,"[8]; ratio of GdA-relative EC50 ratios, HepG2 over SC5314",2.89
same,MIC,[9],2.6 µM
same,Ratio rel. GdA (HepG2),Hsp90 in HEPG2 lysate; EC50 / EC50 of GdA in HepG2 lysate,90.1713
same,Ratio rel. GdA (HepG2),"Hsp90 in HEPG2 lysate; EC50 relative to GdA, HEPG2 lysate",90.1713
same,"FP signal, Fxn Control","Hsp90 in HEPG2 lysate; HEPG2 lysate, log concentration 0.137354 (1.372 nM)",1.0099
same,"FP signal, Fxn Control","Hsp90 in HEPG2 lysate; HEPG2 lysate, log concentration 0.61437 (4.115 nM)",1.0198
same,"FP signal, Fxn Control","Hsp90 in HEPG2 lysate; HEPG2 lysate, log concentration 1.09153 (12.346 nM)",1.0099
same,"FP signal, Fxn Control","Hsp90 in HEPG2 lysate; HEPG2 lysate, log concentration 1.56864 (37.037 nM)",1.0099
same,"FP signal, Fxn Control","Hsp90 in HEPG2 lysate; HEPG2 lysate, log concentration 2.04576 (111.111 nM)",0.9901
same,"FP signal, Fxn Control","Hsp90 in HEPG2 lysate; HEPG2 lysate, log concentration 2.52288 (333.333 nM)",0.9158
same,"FP signal, Fxn Control","Hsp90 in HEPG2 lysate; HEPG2 lysate, log concentration 3 (1000 nM)",0.6881
same,"FP signal, Fxn Control","Hsp90 in HEPG2 lysate; HEPG2 lysate, log concentration 3.47712 (3000 nM)",0.2178
same,"FP signal, Fxn Control","Hsp90 in HEPG2 lysate; HEPG2 lysate, log concentration -0.340084 (0.457 nM)",1.0099
same,FP signal (raw),"Hsp90 in HEPG2 lysate; HepG2 lysate, 0.457 nM",204
same,FP signal,"Hsp90 in HEPG2 lysate; HepG2 lysate, 0.457 nM compound",204
same,FP signal (raw),"Hsp90 in HEPG2 lysate; HepG2 lysate, 1.372 nM",204
same,FP signal,"Hsp90 in HEPG2 lysate; HepG2 lysate, 1.372 nM compound",204
same,FP signal (raw),"Hsp90 in HEPG2 lysate; HepG2 lysate, 4.115 nM",206
same,FP signal,"Hsp90 in HEPG2 lysate; HepG2 lysate, 4.115 nM compound",206
same,FP signal (raw),"Hsp90 in HEPG2 lysate; HepG2 lysate, 12.346 nM",204
same,FP signal,"Hsp90 in HEPG2 lysate; HepG2 lysate, 12.346 nM compound",204
same,FP signal (raw),"Hsp90 in HEPG2 lysate; HepG2 lysate, 37.037 nM",204
same,FP signal,"Hsp90 in HEPG2 lysate; HepG2 lysate, 37.037 nM compound",204
same,FP signal (raw),"Hsp90 in HEPG2 lysate; HepG2 lysate, 111.111 nM",200
same,FP signal,"Hsp90 in HEPG2 lysate; HepG2 lysate, 111.111 nM compound",200
same,FP signal (raw),"Hsp90 in HEPG2 lysate; HepG2 lysate, 333.333 nM",185
same,FP signal,"Hsp90 in HEPG2 lysate; HepG2 lysate, 333.333 nM compound",185
same,FP signal (raw),"Hsp90 in HEPG2 lysate; HepG2 lysate, 1000 nM",139
same,FP signal,"Hsp90 in HEPG2 lysate; HepG2 lysate, 1000 nM compound",139
same,FP signal (raw),"Hsp90 in HEPG2 lysate; HepG2 lysate, 3000 nM",44
same,FP signal,"Hsp90 in HEPG2 lysate; HepG2 lysate, 3000 nM compound",44
same,pEC50,"Hsp90 in HEPG2 lysate; HepG2 lysate, oxime panel experiment 220817",5.70
